This test has as its target T1, recombinant human LTA4 hydrolase (rhLTA4H) (Homo sapiens, UniProt P09960).
T1 construct: made in house; host or cells: Spodoptera frugiperda (Sf-9) cells, baculovirus (pFastBac1)
T1 sequence (P09960 1-611): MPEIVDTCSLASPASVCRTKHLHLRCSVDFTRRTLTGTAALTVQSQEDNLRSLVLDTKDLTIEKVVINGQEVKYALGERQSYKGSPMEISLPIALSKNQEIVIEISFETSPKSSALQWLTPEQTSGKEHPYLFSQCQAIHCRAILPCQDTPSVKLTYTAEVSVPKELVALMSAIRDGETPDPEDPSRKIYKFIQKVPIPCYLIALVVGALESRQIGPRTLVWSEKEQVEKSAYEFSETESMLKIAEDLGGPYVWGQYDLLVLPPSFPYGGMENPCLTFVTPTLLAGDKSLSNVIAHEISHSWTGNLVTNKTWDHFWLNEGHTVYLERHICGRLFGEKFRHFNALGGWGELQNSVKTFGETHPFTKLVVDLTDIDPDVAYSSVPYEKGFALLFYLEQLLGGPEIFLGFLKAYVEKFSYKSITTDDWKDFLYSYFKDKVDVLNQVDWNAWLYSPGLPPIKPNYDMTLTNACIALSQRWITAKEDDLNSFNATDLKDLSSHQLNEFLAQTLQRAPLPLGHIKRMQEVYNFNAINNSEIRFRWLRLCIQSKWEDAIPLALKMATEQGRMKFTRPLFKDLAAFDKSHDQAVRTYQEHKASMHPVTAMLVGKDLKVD
Put plainly: Recombinant Human LTA4 Hydrolase Assay for LTA4 Hydrolase Inhibitor Activity. Format: biochemical. To be noted: average of results obtained; LTB4 quantified by enzyme-linked immunoassay. In outline: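 LTB4 formation, quantified by EIA after 10 min at rt, was the read-out once 9 ng LTA4 (free acid) was added to recombinant human enzyme (36 ng, Sf-9 expressed) that had sat 10 min with compound. Buffer: 0.1 M potassium phosphate pH 7.4 with fatty-acid-free BSA; IC50 by 4-parameter fit.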

As to `NC(=O)N[C@H]1C[C@H]2CC[C@@H](C1)N2CCOc1ccc(Oc2nc3c(F)cccc3s2)cc1` [Example 262, meso-endo-(8-{2-[4-(4-Fluoro-benzothiazole-2-yloxy)-phenoxy]-ethyl}-8-aza-bicyclo[3.2.1]oct-3-yl)-urea], the Ki (in general, a dissociation constant, usually derived from enzyme kinetics or from competition with a known ligand) is 12 nM. Turning to `Cc1noc(C)c1NC(=O)N1CC2CN(Cc3ccc(Oc4nc5ccccc5s4)cc3)CC2C1` (stereo not drawn) [Example 133, 5-[4-(Benzothiazol-2-yloxy)-benzyl]-hexahydro-pyrrolo[3,4-c]pyrrole-2-carboxylic acid (3,5-dimethyl-isoxazol-4-yl)-amide], the Ki was found to be 20 nM. Consider `O=C(CO)N1C[C@@H]2C[C@H]1CN2CCc1cccc(Oc2nc3ccccc3s2)c1` [Example 20, (S,S)-1-(5-{2-[3-(Benzothiazol-2-yloxy)-phenyl]-ethyl}-2,5-diaza-bicyclo[2.2.1]hept-2-yl)-2-hydroxy-ethanone], for which the Ki stood at 73 nM. The figure for `NC(=O)N1C[C@@H]2C[C@H]1CN2CCOc1ccc(Oc2nc3ccccc3s2)cc1` [Example 40, (S,S)-5-{2-[4-(Benzothiazol-2-yloxy)-phenoxy]-ethyl}-2,5-diaza-bicyclo[2.2.1]heptane-2-carboxylic acid amide] is 38 nM; for `O=C(CNC(=O)C(F)(F)F)N1CCC2CN(Cc3ccc(Oc4nc5ccccc5s4)cc3)CC21` (stereo not drawn) [Example 98, N-(2-{5-[4-(Benzothiazol-2-yloxy)-benzyl]-hexahydro-pyrrolo[3,4-b]pyrrol-1-yl}-2-oxo-ethyl)-2,2,2-trifluoro-acetamide] it is 40 nM. Under `CC(=O)N1C[C@H]2C[C@@H]1CN2Cc1ccc(Oc2nc3ccccc3s2)cc1` [Example 3, (R,R)-1-{5-[4-(Benzothiazol-2-yloxy)-benzyl]-2,5-diaza-bicyclo[2.2.1]hept-2-yl}-ethanone] stands 7 nM. Under `O=C(C1CNC1)N1CC2CN(Cc3ccc(Oc4nc5ccccc5s4)cc3)CC2C1` (stereo not drawn) [Example 99, Azetidin-3-yl-{5-[4-(benzothiazol-2-yloxy)-benzyl]-hexahydro-pyrrolo[3,4-c]pyrrol-2-yl}-methanone] stands 221 nM; under `Cc1ccc2nc(Oc3ccc(CCN[C@@H]4C[C@H]5CC[C@@H](C4)N5S(C)(=O)=O)cc3)sc2c1` [Example 269, meso-exo-(8-Methanesulfonyl-8-aza-bicyclo[3.2.1]oct-3-yl)-{2-[4-(6-methyl-benxothiazol-2-yloxy)-phenyl]-ethyl}-amine], 630 nM; under `CC(=O)N1CC2CN(Cc3ccc(Cc4nc5ccccc5s4)cc3)CC2C1` (stereo not drawn) [Example 149, 1-[5-(4-Benzothiazol-2-ylmethyl-benzyl)-hexahydro-pyrrolo[3,4-c]pyrrol-2-yl]-ethanone], 79 nM. Turning to `CS(=O)(=O)N1C[C@@H]2C[C@H]1CN2CCc1ccc(Oc2nc3ccccc3s2)cc1` [Example 47, (S,S)-2-{4-[2-(5-Methanesulfonyl-2,5-diaza-bicyclo[2.2.1]hept-2-yl)-ethyl]-phenoxy}-benzothiazole], the Ki came to 57 nM. Under `CC(=O)N1C[C@H]2C[C@@H]1CN2CCOc1ccc(Oc2nc3ccc(Cl)cc3s2)cc1` [Example 177, (R,R)-1-(5-{2-[4-(6-Chloro-benzothiazol-2-yloxy)-phenoxy]-ethyl}-2,5-diaza-bicyclo[2.2.1]hept-2-yl)-ethanone] stands 94 nM; under `CC(=O)N1C[C@H]2C[C@@H]1CN2Cc1ccc(Oc2nc3cc(F)ccc3s2)cc1` [Example 183, (R,R)-1-{5-[4-(5-Fluoro-benzothiazol-2-yloxy)-benzyl]-2,5-diaza-bicyclo[2.2.1]hept-2-yl}-ethanone], 383 nM.

`CC(C)(C)OC(=O)NC1(C(=O)N2C[C@@H]3C[C@H]2CN3Cc2ccc(Oc3nc4ccccc4s3)cc2)CC1` [Example 63, (S,S)-(1-{5-[4-(Benzothiazol-2-yloxy)-benzyl]-2,5-diaza-bicyclo[2.2.1]heptane-2-carbonyl}-cyclopropyl)-carbamic acid tert-butyl ester]: the Ki is 21 nM. The figure for `O=C(N1C[C@@H]2C[C@H]1CN2CCOc1ccc(Oc2nc3ccccc3s2)cc1)C1(O)CC1` [Example 27, (S,S)-(5-{2-[4-(Benzothiazol-2-yloxy)-phenoxy]-ethyl}-2,5-diaza-bicyclo[2.2.1]hept-2-yl)-(1-hydroxy-cyclopropyl)-methanone] is 1 nM; for `O=C(O)c1ccc(CN2CC3CN(Cc4ccc(Oc5nc6ccccc6s5)cc4)CC3C2)cc1` (stereo not drawn) [Example 154, 4-{5-[4-(Benzothiazol-2-yloxy)-benzyl]-hexahydro-pyrrolo[3,4-c]pyrrol-2-ylmethyl)-benzoic acid] it is 32 nM. The figure for `CC(C)(C)OC(=O)NC1(C(=O)N2C[C@@H]3C[C@H]2CN3CCOc2ccc(Oc3nc4ccccc4s3)cc2)CC1` [Example 66, (S,S)-[1-(5-{2-[4-(Benzothiazol-2-yloxy)-phenoxy]-ethyl}-2,5-diaza-bicyclo[2.2.1]heptane-2-carbonyl)-cyclopropyl]-carbamic acid tert-butyl ester] is 191 nM. Under `CC(C)(O)C(=O)N1C[C@@H]2C[C@H]1CN2CCc1cccc(Oc2nc3ccccc3s2)c1` [Example 19, (S,S)-1-(5-{2-[3-(Benzothiazol-2-yloxy)-phenyl]-ethyl}-2,5-diaza-bicyclo[2.2.1]hept-2-yl)-2-hydroxy-2-methyl-propan-1-one] stands 163 nM. Turning to `CC(=O)N1C2CCC1CN(Cc1ccc(Oc3nc4ccccc4s3)cc1)C2` [Example 51, meso-1-{3-[4-(Benzothiazol-2-yloxy)-benzyl]-3,8-diaza-bicyclo[3.2.1]oct-8-yl}-ethanone], the Ki was 92 nM. Under `O=C(CO)N1CC2CN(Cc3ccc(Oc4nc5ccccc5s4)cc3)CC2C1` (stereo not drawn) [Example 118, 1-{5-[4-(Benzothiazol-2-yloxy)-benzyl]-hexahydro-pyrrolo[3,4-c]pyrrol-2-yl}-2-hydroxy-ethanone] stands 23 nM.

With `O=C(CO)N1C[C@H]2C[C@@H]1CN2Cc1ccc(Oc2nc3ccccc3s2)cc1` [Example 44, (R,R)-1-{5-[4-(Benzothiazol-2-yloxy)-benzyl]-2,5-diaza-bicyclo[2.2.1]hept-2-yl}-2-hydroxy-ethanone], the Ki turned out to be 38 nM.

In the case of `O=C(CC(F)(F)F)N1CC2CN(Cc3ccc(Oc4nc5ccccc5s4)cc3)CC2C1` (stereo not drawn) [Example 113, 1-{5-[4-(Benzothiazol-2-yloxy)-benzyl]-hexahydro-pyrrolo[3,4-c]pyrrol-2-yl}-3,3,3-trifluoro-propan-1-one], the Ki was found to be 100 nM. The figure for `NCC(=O)N1CC2CN(Cc3ccc(Oc4nc5ccccc5s4)cc3)CC2C1` (stereo not drawn) [Example 97, 2-Amino-1-{5-[4-(benzothiazol-2-yloxy)-benzyl]-hexahydro-pyrrolo[3,4-c]pyrrol-2-yl}-ethanone] is 33 nM. `NC(=O)N[C@@H]1C[C@H]2CC[C@@H](C1)N2CCc1ccc(Oc2nc3cc(F)ccc3s2)cc1` [Example 242, meso-exo-(8-{2-[4-(5-Fluoro-benzothiazol-2-yloxy)-phenyl]-ethyl}-8-aza-bicyclo[3.2.1]oct-3-yl)-urea]: the Ki is 398 nM. The figure for `O=C(N1C[C@@H]2C[C@H]1CN2CCc1ccc(Oc2nc3ccccc3s2)cc1)C1(O)CC1` [Example 16] is 11 nM; for `O=C(CO)N1C[C@@H]2C[C@H]1CN2CCc1ccc(Oc2nc3ccccc3s2)cc1` [Example 15, (S,S)-1-(5-{2-[4-(Benzothiazol-2-yloxy)-phenyl]-ethyl}-2,5-diaza-bicyclo[2.2.1]hept-2-yl)-2-hydroxy-ethanone] it is 18 nM. Under `O=C([C@@H]1CCCO1)N1CC2CN(Cc3ccc(Oc4nc5ccccc5s4)cc3)CC2C1` (stereo partly drawn) [Example 101, (S)-{5-[4-(Benzothiazol-2-yloxy)-benzyl]-hexahydro-pyrrolo[3,4-c]pyrrol-2-yl}-(tetrahydro-furan-2-yl)-methanone] stands 108 nM; under `CC(=O)N1C[C@@H]2C[C@H]1CN2CCc1cccc(Oc2nc3ccccc3s2)c1` [Example 8, (S,S)-1-(5-{2-[3-(Benzothiazol-2-yloxy)-phenyl]-ethyl}-2,5-diaza-bicyclo[2.2.1]hept-2-yl)-ethanone], 206 nM.

As to `O=C(CO)N1C[C@@H]2C[C@H]1CN2CCOc1ccc(Oc2nc3ccccc3s2)cc1` [Example 23, (S,S)-1-(5-{2-[4-(Benzothiazol-2-yloxy)-phenoxy]-ethyl}-2,5-diaza-bicyclo[2.2.1]hept-2-yl)-2-hydroxy-ethanone], the inhibition constant Ki is 26 nM. The figure for `NC(=O)N1[C@@H]2CC[C@H]1C[C@@H](NCCOc1ccc(Oc3nc4cc(Cl)ccc4s3)cc1)C2` [Example 257, meso-endo-3-{2-[4-(5-Chloro-benzothiazol-2-yloxy)-henoxy]-ethylamino}-8-aza-bicyclo[3.2.1]octane-8-carboxylic acid amide] is 490 nM; for `CC(=O)N[C@@H]1C[C@H]2CC[C@@H](C1)N2CCc1ccc(Oc2nc3cccc(F)c3s2)cc1` [Example 254, meso-exo-N-(8-{2-[4-(7-Fluoro-benzothiazol-2-yloxy)-phenyl]-ethyl}-8-aza-bicyclo[3.2.1]oct-3-yl)-acetamide] it is 115 nM.
